Data set [1] has as its target T1, hMMP-1 (Homo sapiens, UniProt P03956).
T1 construct: made in house; host or cells: transfected HT-1080 cells (provided by Dr. Howard Welgus, Washington University)
T1 sequence (P03956 100-469): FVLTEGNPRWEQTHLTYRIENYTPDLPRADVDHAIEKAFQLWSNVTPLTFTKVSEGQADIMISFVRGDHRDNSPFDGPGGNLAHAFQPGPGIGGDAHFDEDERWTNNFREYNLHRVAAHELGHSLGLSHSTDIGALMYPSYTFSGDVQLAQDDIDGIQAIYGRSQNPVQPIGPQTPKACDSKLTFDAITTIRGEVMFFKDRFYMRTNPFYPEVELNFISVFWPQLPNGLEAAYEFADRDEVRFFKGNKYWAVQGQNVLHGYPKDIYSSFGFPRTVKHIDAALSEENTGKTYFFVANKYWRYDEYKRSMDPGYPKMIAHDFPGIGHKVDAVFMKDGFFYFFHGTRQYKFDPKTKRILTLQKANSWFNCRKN
The data set is described as follows: In vitro metalloprotease inhibition, fluorogenic MCA peptide substrate. Type of data set: biochemical. Particulars: recombinant human enzyme, APMA activated, room temperature, pH 7.5. The procedure:
(§1) The compounds prepared in the manner described in Examples 1 to 15 were assayed for activity by an in vitro assay. Following the procedures of Knight et al., FEBS Lett. 296(3):263 (1992). Briefly, 4-aminophenylmercuric acetate (APMA) or trypsin activated MMPs were incubated with various concentrations of the inhibitor compound at room temperature for 5 minutes.
(§2) More specifically, recombinant human MMP-13 and MMP-1 enzymes were prepared in laboratories of the assignee. MMP-13 was expressed in baculovirus as a proenzyme, and purified first over a heparin agarose column and then over a chelating zinc chloride column. The proenzyme was activated by APMA for use in the assay. MMP-1 expressed in transfected HT-1080 cells was provided by Dr. Howard Welgus of Washington University, St. Louis, Mo. The enzyme was also activated using APMA and was then purified over a hydroxamic acid column.
(§3) The enzyme substrate is a methoxycoumarin-containing polypeptide having the following sequence:
(§4) MCA-ProLeuGlyLeuDpaAlaArgNH^2, wherein MCA is methoxycoumarin and Dpa is 3-(2,4-dinitrophenyl)-L-2,3-diaminopropionyl alanine. This substrate is commercially available from Baychem as product M-1895.
(§5) The buffer used for assays contained 100 mM Tris-HCl, 100 mM NaCl, 10 mM CaCl2 and 0.05 percent polyethyleneglycol (23) lauryl ether at a pH value of 7.5. Assays were carried out at room temperature, and dimethyl sulfoxide (DMSO) at a final concentration of 1 percent was used to dissolve inhibitor compound.
(§6) The assayed inhibitor compound in DMSO/buffer solution was compared to an equal amount of DMSO/buffer with no inhibitor as control using Microfluor™ White Plates (Dynatech). The inhibitor or control solution was maintained in the plate for 10 minutes and the substrate was added to provide a final concentration of 4 μM.
(§7) In the absence of inhibitor activity, a fluorogenic peptide was cleaved at the gly-leu peptide bond, separating the highly fluorogenic peptide from a 2,4-dinitrophenyl quencher, resulting in an increase of fluorescence intensity (excitation at 328 nm/emission at 415 nm). Inhibition was measured as a reduction in fluorescent intensity as a function of inhibitor concentration, using a Perkin Elmer L550 plate reader. The IC50 values were calculated from those values. The results are set forth in the Inhibition Table below as Table 9, reported in terms of IC50.

The target of data set [2] is T2, hMMP-13 (Homo sapiens, UniProt P45452).
T2 construct: made in house
Described as above. Type of data set: biochemical. Particulars: recombinant human enzyme, APMA activated, room temperature, pH 7.5. The procedure:
as §1, §2, §3, §4, §5, §6, §7

For data set [3], the target named is hMMP-9 (Homo sapiens, UniProt P14780). The description is as above. In kind it is biochemical. As to conditions: room temperature, pH 7.5. The procedure:
as §1, §3, §4, §5, §6, §7

For data set [4], the target named is hMMP-3 (Homo sapiens, UniProt P08254). The data set is described as above. Type of data set: biochemical. As to conditions: room temperature, pH 7.5. Here is the method:
as §1, §3, §4, §5, §6, §7

In data set [5] the target is hMMP-8 (Homo sapiens, UniProt P22894). The data set is described as above. In kind it is biochemical. As to conditions: room temperature, pH 7.5. The procedure: as §1, §3, §4, §5, §6, §7
Chain of hMMP-8 (P22894 101-467): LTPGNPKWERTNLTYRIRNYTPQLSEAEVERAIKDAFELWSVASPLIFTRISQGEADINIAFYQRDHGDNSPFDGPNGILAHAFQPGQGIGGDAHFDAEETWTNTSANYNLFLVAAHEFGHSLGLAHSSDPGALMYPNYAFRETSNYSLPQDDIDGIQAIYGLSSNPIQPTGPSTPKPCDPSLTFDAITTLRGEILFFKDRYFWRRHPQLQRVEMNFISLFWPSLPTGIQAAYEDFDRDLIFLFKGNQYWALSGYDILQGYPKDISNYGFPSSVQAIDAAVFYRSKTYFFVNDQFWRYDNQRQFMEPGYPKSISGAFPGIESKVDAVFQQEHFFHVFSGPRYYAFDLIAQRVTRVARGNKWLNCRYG
For data set [6], the target named is T3, hMMP-2 (Homo sapiens, UniProt P08253).
T3 sequence (P08253 110-660): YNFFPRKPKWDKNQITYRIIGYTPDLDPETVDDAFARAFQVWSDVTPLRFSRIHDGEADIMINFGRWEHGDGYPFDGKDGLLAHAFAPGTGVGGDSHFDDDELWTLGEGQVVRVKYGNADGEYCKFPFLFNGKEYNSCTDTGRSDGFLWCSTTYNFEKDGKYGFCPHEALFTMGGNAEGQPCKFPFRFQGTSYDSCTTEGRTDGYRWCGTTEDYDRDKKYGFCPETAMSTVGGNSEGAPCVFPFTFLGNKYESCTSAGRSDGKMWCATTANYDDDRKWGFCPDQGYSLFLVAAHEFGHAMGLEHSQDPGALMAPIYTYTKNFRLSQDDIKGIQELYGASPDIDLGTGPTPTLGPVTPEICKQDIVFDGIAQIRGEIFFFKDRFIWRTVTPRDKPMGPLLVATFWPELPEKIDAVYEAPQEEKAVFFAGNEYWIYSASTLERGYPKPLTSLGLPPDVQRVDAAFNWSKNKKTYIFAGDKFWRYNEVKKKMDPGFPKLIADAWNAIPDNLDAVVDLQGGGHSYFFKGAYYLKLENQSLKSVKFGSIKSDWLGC
Described as above. In kind it is biochemical. As to conditions: room temperature, pH 7.5. The procedure: as §1, §3, §4, §5, §6, §7

Data set [7] relates to advanced, rapidly progressive, treatment-refractory solid tumor cancers. Particulars: cited from earlier work.

These results are taken from US6451791B1, “Amidoaromatic ring sulfonamide hydroxamic acid compounds” (Monsanto Company, priority 1997, dated 2002).

Usually IC50 stands for the concentration needed to halve the response being measured.

SMILES strings stand for the structures. Where a name gives a salt, the structure may show the parent alone.

Chain of hMMP-3 (P08254 100-477): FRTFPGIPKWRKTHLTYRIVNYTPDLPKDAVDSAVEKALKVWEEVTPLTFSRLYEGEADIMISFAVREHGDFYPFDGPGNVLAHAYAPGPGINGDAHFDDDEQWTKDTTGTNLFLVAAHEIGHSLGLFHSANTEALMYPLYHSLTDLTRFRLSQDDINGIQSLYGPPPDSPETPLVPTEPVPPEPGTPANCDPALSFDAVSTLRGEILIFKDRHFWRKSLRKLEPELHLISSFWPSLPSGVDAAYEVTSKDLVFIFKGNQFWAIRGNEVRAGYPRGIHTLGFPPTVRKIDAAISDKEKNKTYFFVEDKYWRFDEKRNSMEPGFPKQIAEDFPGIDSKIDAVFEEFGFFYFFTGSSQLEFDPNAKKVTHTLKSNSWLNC
Chain of hMMP-9 (P14780 107-707 limits assumed): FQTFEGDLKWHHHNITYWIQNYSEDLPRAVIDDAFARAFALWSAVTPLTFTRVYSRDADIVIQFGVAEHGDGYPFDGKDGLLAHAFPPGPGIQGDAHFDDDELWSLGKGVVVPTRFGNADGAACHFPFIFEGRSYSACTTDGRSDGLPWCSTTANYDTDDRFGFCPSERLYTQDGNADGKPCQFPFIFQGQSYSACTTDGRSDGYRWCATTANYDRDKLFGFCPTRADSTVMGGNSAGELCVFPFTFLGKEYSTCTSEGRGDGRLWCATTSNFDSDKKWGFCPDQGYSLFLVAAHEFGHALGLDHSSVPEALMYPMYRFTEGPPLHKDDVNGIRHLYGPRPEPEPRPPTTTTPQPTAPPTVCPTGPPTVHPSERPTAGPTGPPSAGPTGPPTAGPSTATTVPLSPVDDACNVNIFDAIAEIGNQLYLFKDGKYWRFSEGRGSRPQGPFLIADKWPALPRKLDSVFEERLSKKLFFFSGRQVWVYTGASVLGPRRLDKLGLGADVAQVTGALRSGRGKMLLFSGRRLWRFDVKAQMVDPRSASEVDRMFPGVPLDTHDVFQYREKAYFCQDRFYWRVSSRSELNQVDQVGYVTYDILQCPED

As to `C[C@H](C(=O)NO)N(CCN1CCOCC1)S(=O)(=O)c1ccc(NC(=O)c2ccccc2)cc1` [Example 4], the IC50 in data set [1] is over 10 µM; in data set [2], 0.0025 µM; in data set [3], 0.02 µM.
For the compound `C[C@H](C(=O)NO)N(CCN1CCOCC1)S(=O)(=O)c1ccc(NC(=O)c2ccccc2)cc1` [Example 4a, (R)-N-[4-[[[2-(Hydroxyamino)-1-methyl-2-oxoethyl][2-4-morpholinyl)ethyl]amino]sulfonyl]phenyl]benzamide, Monohydrochloride], the IC50 in data set [2] is 0.0022 µM; in data set [3] it was 0.024 µM.
Regarding `C[C@H](C(=O)NO)N(CCN1CCOCC1)S(=O)(=O)c1ccc(NC(=O)c2ccc(Br)cc2)cc1` [Example 5], the figures for the IC50 in data set [1] and in data set [2] were 4.85 µM and 0.00035 µM, respectively.
Regarding `C[C@H](C(=O)NO)N(CCN1CCOCC1)S(=O)(=O)c1ccc(NC(=O)C2CCCCC2)cc1` [Example 6], the IC50 in data set [1] was over 10 µM; in data set [2], 0.25 µM; in data set [3], 3.5 µM.
`CCCc1ccc(C(=O)Nc2ccc(S(=O)(=O)N(CCN3CCOCC3)[C@@H](C(=O)NO)C(C)C)cc2)cc1` [Example 7]: the half-maximal inhibitory concentration (IC50) in data set [1] worked out at 4 µM; in data set [2], 0.0003 µM; in data set [4], 0.09 µM; in data set [5] it was 0.009 µM; in data set [3] it was 0.0045 µM.
In the case of `CCCCc1ccc(C(=O)Nc2ccc(S(=O)(=O)N(CCN3CCOCC3)[C@@H](C(=O)NO)C(C)C)cc2)cc1` [Example 8], the IC50 in data set [1] is 4 µM; in data set [2], 0.0001 µM; in data set [4], 0.05 µM; in data set [5] it was 0.0258 µM; in data set [3], 0.031 µM.
For `CCCCCc1ccc(C(=O)Nc2ccc(S(=O)(=O)N(CCN3CCOCC3)[C@@H](C(=O)NO)C(C)C)cc2)cc1` [Example 9], the IC50 was 4 µM in data set [1]; under 0.0001 µM in data set [2]; under 0.0001 µM in data set [6]; 0.055 µM in data set [4]; 0.008 µM in data set [5]; 0.2 µM in data set [3].
Consider `CCCCCCc1ccc(C(=O)Nc2ccc(S(=O)(=O)N(CCN3CCOCC3)[C@@H](C(=O)NO)C(C)C)cc2)cc1` [Example 10], for which the IC50 in data set [1] is 5.6 µM; in data set [2] it was under 0.0001 µM; in data set [3], 0.35 µM.
With `CCCCCCc1ccc(C(=O)Nc2ccc(S(=O)(=O)N(CCN3CCOCC3)[C@@H](C(=O)NO)C(C)C)cc2)cc1` [Example 10a, (R)-4-Hexyl-N-[4-[[[1-(hydroxyamino)-carbonyl]-2-methylpropyl][2-(4-morpholinyl)ethyl]amino]sulfonyl]phenylbenzamide], the IC50 in data set [6] is under 0.0001 µM; in data set [4], 0.18 µM; in data set [5], 0.0026 µM.
Take `CCCc1ccc(C(=O)Nc2ccc(S(=O)(=O)N(Cc3cccnc3)[C@@H](C(=O)NO)C(C)C)cc2)cc1` [Example 11]: the IC50 in data set [1] is over 10 µM; in data set [2], 0.0005 µM; in data set [6] it was 0.0001 µM; in data set [4], 0.225 µM; in data set [5], 0.039 µM; in data set [3], 0.024 µM.
`CC(C)[C@H](C(=O)NO)N(CCN1CCOCC1)S(=O)(=O)c1ccc(NC(=O)c2ccccc2)cc1` [Example 12]: the IC50 in data set [1] came out at 3.4 µM; in data set [2] it was 0.0114 µM; in data set [4], 0.8 µM; in data set [5], 0.0123 µM; in data set [3], 0.245 µM.
Turning to `CC(C)[C@H](C(=O)NO)N(CCN1CCOCC1)S(=O)(=O)c1ccc(NC(=O)c2ccc(Br)cc2)cc1` [Example 13], the figures for the IC50 in data set [1], in data set [2] and in data set [3] were 0.88 µM, 0.0004 µM and 0.0019 µM, respectively.
For `CCCCCc1ccc(C(=O)Nc2ccc(S(=O)(=O)N[C@H](Cc3ccccc3)C(=O)NO)cc2)cc1` [Example 14], the IC50 in data set [1] was over 10 µM; in data set [2], under 0.0001 µM; in data set [6], under 0.0001 µM; in data set [4], 0.03 µM; in data set [5] it was 0.034 µM; in data set [3], 0.161 µM.
Turning to `CCCCCc1ccc(C(=O)Nc2ccc(S(=O)(=O)N(CCN3CCOCC3)[C@H](Cc3ccccc3)C(=O)NO)cc2)cc1` [Example 15], the IC50 in data set [1] was over 10 µM; in data set [2], under 0.0001 µM; in data set [6], under 0.0001 µM; in data set [4], 0.14 µM; in data set [5], 0.241 µM; in data set [3] it was 0.286 µM.
In the case of `CNC(=O)[C@@H](NC(=O)[C@H](CC(C)C)[C@H](O)C(=O)NO)C(C)(C)C` [marimastat], the “most common drug-related toxicity” value in data set [7] (clinical trials in patients) is “musculoskeletal pain and stiffness”. The “effect on cancer-specific antigens used as surrogate markers for biological activity” value in data set [7] (patients with colorectal, pancreatic, ovarian, prostate cancers) is “dose-related reduction in the rise of cancer-specific antigens”.
